Experiments:
[1] = target: T1, recombinant BACE1 protein (Homo sapiens (Human), UniProt P56817); experiment: BACE1 Biochemical FRET based assay - Method 1; details: 1 μg/ml BACE1, 10 μM substrate, 120 min, pH 5.0; read-out: BACE1 Biochemical FRET based assay - Method 1 pIC50 (converted)
Excerpt: (§1) This assay is a Fluorescence Resonance Energy Transfer Assay (FRET) based assay. The substrate for this assay is an APP derived 13 amino acids peptide that contains the ‘Swedish’ Lys-Met/Asn-Leu mutation of the amyloid precursor protein (APP) beta-secretase cleavage site. This substrate also contains two fluorophores: (7-methoxycoumarin-4-yl) acetic acid (Mca) is a fluorescent donor with excitation wavelength at 320 nm and emission at 405 nm and 2,4-Dinitrophenyl (Dnp) is a proprietary quencher acceptor. […] Upon cleavage by BACE1, the fluorophore Mca is separated from the quenching group Dnp, restoring the full fluorescence yield of the donor. The increase in fluorescence is linearly related to the rate of proteolysis.
Briefly in a 384-well format recombinant BACE1 protein in a final concentration of 1 μg/ml is incubated for 120 minutes at room temperature with […] substrate in incubation buffer (40 mM Citrate buffer pH 5.0, 0.04% PEG, 4% DMSO) in the absence or presence of compound. Next the amount of proteolysis is directly measured by fluorescence measurement at T=0 and T=120 (excitation at 320 nm and emission at 405 nm). Results are expressed in RFU (Relative Fluorescence Units), as difference between T120 and TO.

[2] = system: Abeta total secreted by human neuroblastoma SKNBE2 cells expressing wild type hAPP695; experiment: BACE1 cellular αLisa assay in SKNBE2 cells, Abeta total; assay type: cell-based; details: Homo sapiens, 18 hours incubation, read-out: Cellular αLisa assay in SKNBE2 cells Abetatotal pIC50 (converted)
Protocol: (§2) In two αLisa assays the levels of Abeta total and Abeta 1-42 produced and secreted into the medium of human neuroblastoma SKNBE2 cells are quantified. The assay is based on the human neuroblastoma SKNBE2 expressing the wild type Amyloid Precursor Protein (hAPP695). The compounds are diluted and added to these cells, incubated for 18 hours and then measurements of Abeta 1-42 and Abeta total are taken. Abeta total and Abeta 1-42 are measured by sandwich αLisa. αLisa is a sandwich assay using biotinylated antibody AbN/25 attached to streptavidin coated beads and antibody Ab4G8 or cAb42/26 conjugated acceptor beads for the detection of Abeta total and Abeta 1-42 respectively. In the presence of Abeta total or Abeta 1-42, the beads come into close proximity. The excitation of the donor beads provokes the release of singlet oxygen molecules that trigger a cascade of energy transfer in the acceptor beads, resulting in light emission.

[3] = system: Abeta 1-42 secreted by human neuroblastoma SKNBE2 cells expressing wild type hAPP695; experiment: BACE1 cellular αLisa assay in SKNBE2 cells, Abeta 1-42; assay type: cell-based; details: Homo sapiens, 18 hours incubation, read-out: Cellular αLisa assay in SKNBE2 cells Abeta 42 pIC50 (converted)
Protocol: as §2

[4] = target: T1, recombinant BACE1 protein; experiment: BACE1 Biochemical FRET based assay - Method 2; details: 0.04 μg/ml BACE1, 20 μM substrate, 450 min, pH 5.0
Excerpt: as §1
Briefly in a 384-well format recombinant BACE1 protein in a final concentration of 0.04 μg/ml is incubated for 450 minutes at room temperature with 20 μM substrate in incubation buffer (50 mM Citrate buffer pH 5.0, 0.05% PEG) in the presence of compound or DMSO. Next the amount of proteolysis is directly measured by fluorescence measurement (excitation at 320 nm and emission at 405 nm) at different incubation times (0, 30, 60, 90, 120 and 450 min). For every experiment a time curve (every 30 min between 0 min and 120 min) is used to determine the time where we find the lowest basal signal of the high control. The signal at this time (Tx) is used to subtract from the signal at 450 min. Results are expressed in RFU, as difference between T450 and Tx.

[5] = target: recombinant BACE2 protein (Homo sapiens (Human), UniProt Q9Y5Z0); experiment: BACE2 Biochemical FRET based assay; details: 0.4 μg/ml BACE2, 10 μM substrate, 450 min, pH 5.0
Excerpt: as §1, with “assay” for “assay is an APP derived 13 amino acids peptide that”, “the beta-secretase,” for “BACE1,”
Briefly in a 384-well format recombinant BACE2 protein in a final concentration of 0.4 μg/ml is incubated for 450 minutes at room temperature with 10 μM substrate in incubation buffer (50 mM Citrate buffer pH 5.0, 0.05% PEG, no DMSO) in the absence or presence of compound. Next the amount of proteolysis is directly measured by fluorescence measurement at T=0 and T=450 (excitation at 320 nm and emission at 405 nm). Results are expressed in RFU (Relative Fluorescence Units), as difference between T450 and TO.

T1 sequence (P56817 46-501): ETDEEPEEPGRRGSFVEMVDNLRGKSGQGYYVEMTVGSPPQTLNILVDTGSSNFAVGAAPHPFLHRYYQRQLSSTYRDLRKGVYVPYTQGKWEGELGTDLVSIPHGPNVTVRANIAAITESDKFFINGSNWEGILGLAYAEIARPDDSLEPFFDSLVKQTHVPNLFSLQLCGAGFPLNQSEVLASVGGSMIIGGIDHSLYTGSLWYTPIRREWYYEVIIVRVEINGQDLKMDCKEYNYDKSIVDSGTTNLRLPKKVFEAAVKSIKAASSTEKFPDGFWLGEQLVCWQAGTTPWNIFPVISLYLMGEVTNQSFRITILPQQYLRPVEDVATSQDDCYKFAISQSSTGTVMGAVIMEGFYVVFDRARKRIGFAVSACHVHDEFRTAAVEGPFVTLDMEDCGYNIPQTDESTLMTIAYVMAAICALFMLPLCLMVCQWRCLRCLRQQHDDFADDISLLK
recombinant BACE2 protein, sequence (Q9Y5Z0 63-518): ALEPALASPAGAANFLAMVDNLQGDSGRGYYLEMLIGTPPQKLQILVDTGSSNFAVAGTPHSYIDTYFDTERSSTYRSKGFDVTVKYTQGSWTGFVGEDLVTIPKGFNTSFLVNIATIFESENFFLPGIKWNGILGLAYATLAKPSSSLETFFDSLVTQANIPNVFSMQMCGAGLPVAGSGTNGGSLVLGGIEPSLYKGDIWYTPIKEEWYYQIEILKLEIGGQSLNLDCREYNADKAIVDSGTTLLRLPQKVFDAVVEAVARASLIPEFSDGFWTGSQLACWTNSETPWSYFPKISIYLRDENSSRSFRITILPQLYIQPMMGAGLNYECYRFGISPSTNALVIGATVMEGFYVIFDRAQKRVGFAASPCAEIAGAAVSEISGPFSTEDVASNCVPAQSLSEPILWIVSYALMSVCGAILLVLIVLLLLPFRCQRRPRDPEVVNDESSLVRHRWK

C[C@@]1(c2cc(NC(=O)c3ccc(F)cn3)ccc2F)Cn2nncc2C(N)=N1 [Compound 1, N-{3-[(6R)-4-amino-6-methyl-6,7-dihydro[1,2,3]triazolo[1,5-a]pyrazin-6-yl]-4-fluorophenyl}-5-fluoropyridine-2-carboxamide]
IC50 [1]: 5.25 nM | IC50 [2]: 3.24 nM | IC50 [3]: 4.47 nM | BACE1 Biochemical FRET based assay - Method 2 pIC50 [4]: 8.37 | BACE2 Biochemical FRET based assay pIC50 [5]: 8.48
